Experimental data reported in US20230065953A1, “NOVEL HETEROARYL-TRIAZOLE COMPOUNDS AS PESTICIDES” (Bayer Aktiengesellschaft, priority 2019, published 2023).

Legend:
Type in all cases: in vivo
[1] = tested on: adult unfed cat fleas (Ctenocephalides felis); test: Ctenocephalides felis oral test; settings: 48 h
Method: Ctenocephalides felis—Oral Test
(§1) Solvent: dimethyl sulfoxide
To produce a suitable preparation of active compound, 10 mg of active compound are dissolved in 0.5 mL solvent, and the concentrate is diluted with cattle blood to the desired concentration.
Approximately 20 adult unfed cat fleas (Ctenocephalides felis) are placed in flea chambers. The blood chamber, sealed with parafilm on the bottom, are filled with cattle blood supplied with compound solution and placed on the gauze covered top of the flea chamber, so that the fleas are able to suck the blood. The blood chamber is heated to 37° C. whereas the flea chamber is kept at room temperature.
After 2 days mortality in % is determined. 100% means all the fleas have been killed; 0% means none of the fleas have been killed.

[2] = tested on: larvae of the banded cucumber beetle (Diabrotica balteata); test: Diabrotica balteata spray test; settings: 168 h, 100 g/ha (=32 μg/well), wheat seeds, after 7 days, read-out: efficacy (seedling growth)
Method: Diabrotica Balteata—Spray Test
• Solvent: 78.0 parts by weight of acetone • 1.5 parts by weight of dimethylformamide • Emulsifier: alkylarylpolyglycol ether
Further test concentrations are prepared by dilution with emulsifier containing water.
Soaked wheat seeds (Triticum aestivum) are placed in a multiple well plate filled with agar and some water and are incubated for 1 day to germinate (5 seeds per well). The germinated wheat seeds are sprayed with a test solution containing the desired concentration of the active ingredient. Afterwards each unit is infected with 10-20 larvae of the banded cucumber beetle (Diabrotica balteata).
After 7 days efficacy in % is determined.

[3] = tested on: fall armyworm larvae (Spodoptera frugiperda); test: Spodoptera frugiperda spray test (maize leaf sections); settings: 168 h
Method: Spodoptera frugiperda—Spray Test • Solvent: 78.0 parts by weight acetone • 1.5 parts by weight dimethylformamide • Emulsifier: alkylarylpolyglycol ether
(§2) To produce a suitable preparation of active compound, 1 part by weight of active compound is mixed with the stated amount of solvents and is diluted with water, containing an emulsifier concentration of 1000 ppm, to the desired concentration. Further test concentrations are prepared by dilution with emulsifier containing water.
Maize (Zea mays) leaf sections are sprayed with a preparation of the active ingredient of the desired concentration. Once dry, the leaf sections are infested with fall armyworm larvae (Spodoptera frugiperda).
After 7 days mortality in % is determined. 100% means all caterpillars have been killed and 0% means none of the caterpillars have been killed.

[4] = tested on: adult engorged female ticks (Rhipicephalus microplus); test: Rhipicephalus (Boophilus) microplus injection test; settings: 168 h, 4 μg/animal, egg deposition after 7 days, read-out: efficacy (infertile eggs)
Method: Rhipicephalus (Boophilus) Microplus—Injection Test
as §1
To produce a suitable preparation of active compound, 10 mg of active compound are dissolved in 0.5 mL solvent, and the concentrate is diluted with solvent to the desired concentration.
Five adult engorged female ticks (Rhipicephalus microplus) are injected with 1 μL compound solution into the abdomen. The ticks are transferred into replica plates and incubated in a climate chamber.
After 7 days egg deposition of fertile eggs is monitored. Eggs where fertility is not visible are stored in a climate chamber till hatching after about 42 days. An efficacy of 100% means all eggs are infertile; 0% means all eggs are fertile.

[5] = tested on: Rhipicephalus microplus larvae (strain Parkhurst, resistant against synthetic pyrethroids); test: Rhipicephalus (Boophilus) microplus in-vitro contact test, larval cattle tick; settings: 5 μg/cm^2 (=500 g/ha), after 48 hours, read-out: efficacy (larvae dead or moribund)
Method: Rhipicephalus (Boophilus) Microplus—In-Vitro Contact Tests Larval Cattle Tick (Strain Parkhurst, Resistant Against Synthetic Pyrethroids)
9 mg compound is solved in 1 mL acetone and diluted with acetone to the desired concentration. 250 μL of the test solution is filled in 25 mL glass test tubes and homogeneously distributed on the inner walls by rotation and tilting on a shaking device (2 h at 30 rpm). With a compound concentration of 900 ppm, an inner surface of 44.7 cm^2 and a homogeneous distribution, a dose of 5 μg/cm^2 is achieved.
After the solvent has evaporated, each test tube is filled with 20-50 cattle tick larvae (Rhipicephalus microplus), closed with a perforated lid and incubated in a horizontal position at 85% relative humidity and 27° C. in an incubator. After 48 hours efficacy is determined. The larvae are patted on the ground of the tubes and negative geotactic behavior is recorded.
An efficacy of 100% means all larvae are dead or moribund; 0% means no larvae are dead or moribund.

[6] = tested on: green peach aphid (Myzus persicae); test: Myzus persicae oral test; settings: 120 h
Method: Myzus persicae—oral test • Solvent: 100 parts by weight acetone
To produce a suitable preparation of active compound, 1 part by weight of active compound is mixed with the stated amount of solvent, and the concentrate is diluted with water to the desired concentration. 50 μL compound solution is filled in microtiter plates and 150 μL IPL41 insect medium (33%+15% sugar) is added to obtain a total volume of 200 μL per well. Afterwards the plates are sealed with parafilm through which a mixed population of the green peach aphid (Myzus persicae) can suck on the compound preparation.
(§3) After 5 days mortality in % is determined. 100% means all aphids have been killed and 0% means none of the aphids have been killed.

[7] = tested on: adult flies Musca domestica strain WHO-N; test: Musca domestica test (MUSCDO surface treatment & contact assay); settings: surface concentration 20 mg/m^2, 30 min exposure, 24 hours after contact, read-out: efficacy (mortality)
Method: Musca domestica Test (MUSCDO Surface Treatment & Contact Assay) • Solvent: Aceton+2000 ppm rapeseed oil methyl ester (RME)
In order to produce a sufficient, active ingredient containing solution it is necessary to solve the test compound in the solvent-mix (acetone at 2 mg/ml/RME 2000 ppm). This solution is pipetted onto a glazed tile and after evaporation of the acetone, adult flies of the species Musca domestica strain WHO-N are placed onto the dried surface. The exposure time is 30 minutes.
Mortality in percent (%) is determined 24 hours after contact of the insects to the treated surface. 100% mortality means that all tested insects are dead, whereas 0% means that no insect died.

[8] = tested on: green peach aphid (Myzus persicae); test: Myzus persicae spray test; settings: foliar, 120 h, Chinese cabbage leaf disks, after 5 days
Method: Myzus persicae—Spray Test • Solvent: 78.0 parts by weight acetone • 1.5 parts by weight dimethylformamide • Emulsifier: alkylarylpolyglycol ether
as §2
Chinese cabbage (Brassica pekinensis) leaf disks infected with all instars of the green peach aphid (Myzus persicae), are sprayed with a preparation of the active ingredient of the desired concentration.
as §3

[9] = tested on: larvae of the southern green stink bug (Nezara viridula); test: Nezara viridula spray test; settings: in Hordeum vulgare, 96 h
Method: Nezara viridula—Spray Test • Solvent: 78.0 parts by weight of acetone • 1.5 parts by weight of dimethylformamide • Emulsifier: alkylarylpolyglycol ether
as §2, with “solvent,” for “solvents”, “and the concentrate” for “and”
Barley plants (Hordeum vulgare) are sprayed with a test solution containing the desired concentration of the active ingredient and are infested with larvae of the southern green stink bug (Nezara viridula).
After 4 days mortality in % is determined. 100% means all the stink bugs have been killed; 0% means none of the stink bugs have been killed.

Compound | mortality at 100 ppm [1] [%] | pest or weed control at 32 µg/disc, 100 g/ha [2] [%] | mortality at 100 g/ha [3] [%] | pest or weed control at 0.004 mg [4] [%] | pest or weed control at 5 µg/cm2 [5] [%] | mortality at 4 ppm [6] [%] | mortality at 20 mg/m2 [7] [%] | mortality at 100 g/ha [8] [%] | mortality at 100 g/ha [9] [%] | mortality at 500 g/ha [9] [%]
Cc1nc([C@H](C)NC(=O)c2cc(C#N)cc(C(F)(F)F)c2)n(-c2ncc(C#N)s2)n1 [I-16] | 100 | 100 | 100 | 100 | 100 |  |  |  |  | 
CC(NC(=O)c1cc(Br)cc(Br)c1)c1ncnn1-c1ncc(C#N)s1 (centres unmarked) [I-27] | 100 | 100 |  | 100 |  |  |  |  |  | 
CC(NC(=O)c1cc(Br)cc(I)c1)c1ncnn1-c1ncc(C#N)s1 (centres unmarked) [I-29] | 100 |  |  | 100 | 90 |  |  |  |  | 
CC(NC(=O)c1cc(Cl)cc(S(F)(F)(F)(F)F)c1)c1ncnn1-c1ncc(C#N)s1 (centres unmarked) [I-32] | 100 | 100 | 100 | 100 | 90 |  |  |  |  | 
CC(NC(=O)c1cc(OC(F)F)cc(C(F)F)c1)c1ncnn1-c1ncc(C#N)s1 (centres unmarked) [I-34] | 100 | 100 | 100 | 100 | 90 | 100 |  |  |  | 
C[C@H](NC(=O)c1cc(Cl)cc(S(C)(=O)=O)c1)c1nc(C2CC2)nn1-c1ncc(C#N)s1 [I-40, 3-chloro-N-{(1S)-1-[1-(5-cyano-1,3-thiazol-2-yl)-3-cyclopropyl-1H-1,2,4-triazol-5-yl]ethyl}-5-(methylsulfonyl)benzamide] |  | 80 | 100 |  |  | 90 |  |  |  | 
C[C@H](NC(=O)c1cc(Cl)cc(S(=O)(=O)C2CC2)c1)c1nc(C2CC2)nn1-c1ncc(C#N)s1 [I-42] |  | 100 | 100 |  |  | 100 |  |  |  | 
C[C@H](NC(=O)c1cc(Cl)cc(Br)c1)c1ncnn1-c1ncc(C#N)s1 [I-59] |  | 100 | 100 |  |  |  | 80 to 100 |  |  | 
Cc1nc([C@H](C)NC(=O)c2cc(Cl)cc(C(F)(F)F)c2)n(-c2ncc(C(=O)NC3CC3)s2)n1 [I-66] |  | 100 | 100 | 100 | 100 | 100 |  | 90 |  | 
Cc1nc([C@H](C)NC(=O)c2cc(Cl)cc(C(F)(F)F)c2)n(-c2ncc(C(=O)NCC3CC3)s2)n1 [I-67] |  | 100 | 100 | 100 | 100 | 100 |  |  |  | 
Cc1nc([C@H](C)NC(=O)c2cncc(C(F)(F)F)c2)n(-c2ncc(C(=O)N(C)CC#N)s2)n1 [I-73] |  |  |  |  | 100 | 100 |  | 90 |  | 
Cc1nc([C@H](C)NC(=O)c2cc(Cl)cc(S(=O)(=O)C3CC3)c2)n(-c2ncc(C(=O)N(C)CC#N)s2)n1 [I-74] |  |  |  |  |  | 100 |  | 90 |  | 
Cc1nc([C@H](C)NC(=O)c2cc(Cl)cc(S(C)(=O)=O)c2)n(-c2ncc(C(=O)N(C)C)s2)n1 [I-78] |  |  |  |  |  | 100 |  |  |  | 
Cc1nc([C@H](C)NC(=O)c2cc(Cl)cc(S(C)(=O)=O)c2)n(-c2ncc(C(=O)N(C)CC#N)s2)n1 [I-79] |  |  |  |  |  | 100 |  |  |  | 
Cc1nc([C@H](C)NC(=O)c2cc(Cl)cc(I)c2)n(-c2ncc(C(=O)N(C)CC#N)s2)n1 [I-81] |  | 100 | 100 |  | 100 | 100 |  |  |  | 
Cc1nc([C@H](C)NC(=O)c2cc(C(F)(F)F)cc(S(C)(=O)=O)c2)n(-c2ncc(C(=O)N(C)CC#N)s2)n1 [I-84] | 100 | 100 |  | 100 | 80 | 100 |  |  | 100 | 
C[C@H](NC(=O)c1cc(OC(F)F)cc(OC(F)(F)F)c1)c1ncnn1-c1ncc(C#N)s1 [I-100] |  | 100 | 100 |  |  |  |  | 90 | 100 | 100
C[C@H](NC(=O)c1cc(C(F)(F)F)cc(S(C)(=O)=O)c1)c1nc(C2CC2)nn1-c1ncc(C#N)s1 [I-103] |  | 100 | 100 |  |  |  | 80 to 100 |  |  | 90
CNC(=O)c1cnc(-n2ncnc2[C@H](C)NC(=O)c2cc(OC(F)F)cc(OC(F)F)c2)s1 [I-112] |  | 100 | 100 |  |  |  |  | 100 | 100 | 100
CNC(=O)c1cnc(-n2ncnc2[C@H](C)NC(=O)c2cc(Cl)cc(S(=O)(=O)C(F)F)c2)s1 [I-114] |  | 100 | 100 |  |  |  |  | 90 | 100 | 100
CNC(=O)c1cnc(-n2ncnc2[C@H](C)NC(=O)c2cc(C(F)F)cc(C(F)F)c2)s1 [I-137] |  | 100 | 100 |  |  |  |  | 90 |  | 100
C[C@H](NC(=O)c1cc(OC(F)(F)F)cc(S(=O)(=O)C(F)F)c1)c1ncnn1-c1ncc(C(=O)N(C)C)s1 [I-171] |  | 100 | 100 |  |  |  |  | 100 |  | 100
